Key:
[1] = test system: Smn protein; experiment: Smn protein assay (Smn HTRF) in cultured cells; type: cell-based, human; conditions: Homo sapiens, Fibroblast, GM03813 SMA Type 1 patient fibroblasts, 48 hours, HTRF; for maximal fold induction: 7-point concentration data, relative to vehicle, read-out: maximum fold (Fold) increase of Smn protein; for EC (1.5-fold): concentration producing 1.5 times Smn protein vs DMSO vehicle, read-out: EC1.5x for Smn protein expression
Experimental: Smn Protein Assay in Cultured Cells
The Smn HTRF (homogeneous time resolved fluorescence) assay is used to quantify the level of Smn protein in SMA patient fibroblast cells treated with test compounds.
Protocol. Cells are thawed and cultured in DMEM-10% FBS for 72 hours. Cells are trypsinized, counted and re-suspended to a concentration of 25,000 cells/mL in DMEM-10% FBS. The cell suspension is plated at 5,000 cells per well in a 96 well microtiter plate and incubated for 3 to 5 hours. […] Test compounds are serially diluted 3.16-fold in 100% DMSO to generate a 7-point concentration curve. 1 μL of test compound solution is transferred to cell-containing wells and cells are incubated for 48 hours in a cell culture incubator (37° C., 5% CO2, 100% relateive humidity). Triplicate samples are set up for each test compound concentration. After 48 hours, the supernatant is removed from the wells and 25 μL of the RIPA lysis buffer, containing protease inhibitors, is added to the wells and incubated with shaking at room temperature for 1 hour. 25 μL of the diluent is added and then 35 μL of the resulting lysate is transferred to a 384-well plate, where each well contains 5 μL of the antibody solution (1:100 dilution of anti-SMN d2 and anti-SMN kryptate in SMN reconstitution buffer). The plate is centrifuged for 1 minute to bring the solution to the bottom of the wells, then incubated overnight at room temperature. Fluorescence for each well of the plate at 665 nm and 620 nm is measured on an EnVision multilabel plate reader (Perkin-Elmer).
The normalized fluorescence signal is calculated for each sample, Blank and vehicle control well by dividing the signal at 665 nm by the signal at 620 nm. Normalizing the signal accounts for possible fluorescence quenching due to the matrix effect of the lysate. The AF value (a measurement of Smn protein abundance as a percent value) for each sample well is calculated by subtracting the normalized average fluorescence for the Blank control wells from the normalized fluorescence for each sample well, then dividing this difference by the normalized average fluorescence for the Blank control wells and multiplying the resulting value by 100. The ΔF value for each sample well represents the Smn protein abundance from test compound-treated samples. The ΔF value for each sample well is divided by the ΔF value for the vehicle control wells to calculate the fold increase in Smn protein abundance relative to the vehicle control.
For compounds of Formula (I) or a form thereof disclosed herein, Table 9 provides the EC1.5x for Smn protein expression that was obtained from the 7-point concentration data generated for each test compound according to the procedure of Biological Example 7. The term “EC1.5x for Smn protein expression” is defined as that concentration of test compound that is effective in producing 1.5 times the amount of Smn protein in an SMA patient fibroblast cell compared to the amount produced from the DMSO vehicle control. An EC1.5x for Smn protein expression between >3 μM and ≦10 μM is indicated by one star (*), an EC1.5x between >1 μM and ≦3 μM is indicated by two stars (**), an EC1.5x between >0.3 μM and ≦1 μM is indicated by three stars (***) and an EC1.5x≦0.3 μM is indicated by four stars (****).
For compounds of Formula (I) or a form thereof disclosed herein, Table 10 provides the maximum fold (Fold) increase of Smn protein that was obtained from the 7-point concentration data generated for each test compound according to the procedure of Biological Example 7. A maximum fold increase ≦1.2 is indicated by one star (*), a fold increase between >1.2 and ≦1.35 is indicated by two stars (**), a fold increase between >1.35 and ≦1.5 is indicated by three stars (***), a fold increase between >1.5 and ≦1.65 is indicated by four stars (****) and a fold increase >1.65 is indicated by five stars (*****).

[2] = test system: full length SMN2 minigene mRNA containing SMN2 exon 7 (SMN2-A minigene); experiment: SMN2 minigene mRNA splicing RT-qPCR assay in cultured cells; type: cell-based, human; conditions: Homo sapiens, HEK293-H; HEK293H cells stably transfected with SMN2-A minigene, 24 hours, 7-point concentration curve; concentration giving 1.5-fold SMN2 full length mRNA vs vehicle; read-out: EC1.5x for production of full length SMN2 mRNA
Experimental: SMN2 Minigene mRNA Splicing RT-qPCR Assay in Cultured Cells
The reverse transcription-quantitative PCR-based (RT-qPCR) assay is used to quantify the level of the full length SMN2 minigene mRNA containing SMN2 exon 7 in a HEK293H cell line stably transfected with said minigene and treated with a test compound.
Protocol. HEK293H cells stably transfected with the SMN2-A minigene construct described above (10,000 cells/well) are seeded in 200 μL of cell culture medium (DMEM plus 10% FBS, with 200 μg/mL hygromycin) in 96-well flat-bottom plates and the plate is immediately swirled to ensure proper dispersal of cells, forming an even monolayer of cells. Cells are allowed to attach for at least 4-6 hours. Test compounds are serially diluted 3.16-fold in 100% DMSO to generate a 7-point concentration curve. A solution of test compound (1 μL, 200× in DMSO) is added to each cell-containing well and the plate is incubated for 24 hours in a cell culture incubator (37° C., 5% CO2, 100% relative humidity). Two replicates are prepared for each test compound concentration. The cells are then lysed in Cells-To-Ct lysis buffer and the lysate is stored at −80° C.
Primer SMN Forward A (SEQ ID NO. 1) hybridizes to a nucleotide sequence in exon 7 (nucleotide 22 to nucleotide 40), primer SMN Reverse A (SEQ ID NO. 2) hybridizes to a nucleotide sequence in the coding sequence of Firefly luciferase, SMN Probe A (SEQ ID NO. 3) hybridizes to a nucleotide sequence in exon 7 (nucleotide 50 to nucleotide 54) and exon 8 (nucleotide 1 to nucleotide 21). The combination of these three oligonucleotides detects only SMN1 or SMN2 minigenes (RT-qPCR) and will not detect endogenous SMN1 or SMN2 genes.
The SMN forward and reverse primers are used at final concentrations of 0.4 μM. The SMN probe is used at a final concentration of 0.15 μM. The GAPDH primers are used at final concentrations of 0.2 μM and the probe at 0.15 μM.
The SMN2-minigene GAPDH mix (15 μL total volume) is prepared by combining 7.5 μL of 2×RT-PCR buffer, 0.4 μL of 25×RT-PCR enzyme mix, 0.75 μL of 20×GAPDH primer-probe mix, 4.0075 μL of water, 2 μL of 10-fold diluted cell lysate, 0.06 μL of 100 μM SMN forward primer, 0.06 μL of 100 μM SMN reverse primer, and 0.225 μL of 100 μM SMN probe.
PCR is carried out at the following temperatures for the indicated time: Step 1: 48° C. (15 min); Step 2: 95° C. (10 min); Step 3: 95° C. (15 sec); Step 4: 60° C. (1 min); then repeat Steps 3 and 4 for a total of 40 cycles.
Each reaction mixture contains both SMN2-A minigene and GAPDH primers/probe sets (multiplex design), allowing simultaneous measurement of the levels of two transcripts.
Two SMN spliced products are generated from the SMN2 minigene. The first spliced product containing exon 7, corresponding to SMN2 full length mRNA, is referred to herein using the term “SMN2 minigene FL.” The second spliced product lacking exon 7 is referred to herein using the term “SMN2 minigene Δ7.”
The increase of SMN2 minigene FL mRNA relative to that in cells treated with vehicle control is determined from real-time PCR data using a modified ΔΔCt method (as described in Livak and Schmittgen, Methods, 2001, 25:402-8). The amplification efficiency (E) is calculated from the slope of the amplification curve for SMN2 minigene FL and GAPDH mRNA individually. The abundance of SMN2 minigene FL and GAPDH mRNA are then calculated as (1+E)^−Ct, where Ct is the threshold value for each amplicon. The abundance of SMN2 minigene FL is normalized to GAPDH abundance. The normalized SMN2 minigene FL abundance from test compound-treated samples is then divided by normalized SMN2 minigene FL abundance from vehicle-treated cells to determine the level of SMN2 FL mRNA relative to vehicle control. […]

COc1ccc(-c2cc(=O)c3cc(N4CCCNCC4)ccc3o2)cc1OC [Cpd 25, 6-(1,4-diazepan-1-yl)-2-(3,4-dimethoxyphenyl)-4H-chromen-4-one]
maximal fold induction [1]: 1.35 to 1.5 | EC (1.5-fold) [2]: 3 to 30 µM | melting point: 152 to 154 °C

COc1ccc(-c2cc(=O)c3cc(N4CCN[C@H](C)C4)ccc3o2)cc1C [Cpd 54, 2-(4-methoxy-3-methylphenyl)-6-[(3R)-3-methylpiperazin-1-yl]-4H-chromen-4-one]
maximal fold induction [1]: 1.2 to 1.35 | EC (1.5-fold) [2]: 0.3 to 1 µM | melting point: 164 to 166 °C

O=c1cc(-c2ccc(OC(F)(F)F)cc2)oc2ccc(N3CCNCC3)cc12 [Cpd 64, 6-(piperazin-1-yl)-2-[4-(trifluoromethoxy)phenyl]-4H-chromen-4-one]
maximal fold induction [1]: ≤ 1.2 | EC (1.5-fold) [2]: 0.3 to 1 µM | melting point: 146 to 148 °C

COc1ccc(-c2cc(=O)c3cc(N4CCN(C)CC4)ccc3o2)cc1OC [Cpd 21, 2-(3,4-dimethoxyphenyl)-6-(4-methylpiperazin-1-yl)-4H-chromen-4-one]
maximal fold induction [1]: > 1.65 | EC (1.5-fold) [1]: 1 to 3 µM | EC (1.5-fold) [2]: 0.3 to 1 µM | melting point: 184 to 186 °C

O=c1cc(-c2ccccn2)oc2ccc(N3CCCNCC3)cc12 [Cpd 14, 6-(1,4-diazepan-1-yl)-2-(pyridin-2-yl)-4H-chromen-4-one]
maximal fold induction [1]: ≤ 1.2 | EC (1.5-fold) [2]: 3 to 30 µM | melting point: 170 to 172 °C

CC(C)Oc1ccc(-c2cc(=O)c3cc(N4CCN[C@@H](C)C4)ccc3o2)cc1 [Cpd 50, 6-[(3S)-3-methylpiperazin-1-yl]-2-[4-(propan-2-yloxy)phenyl]-4H-chromen-4-one]
maximal fold induction [1]: ≤ 1.2 | EC (1.5-fold) [2]: 1 to 3 µM | melting point: 128 to 130 °C

O=c1cc(-c2cc(F)cc(F)c2)oc2ccc(N3CCNCC3)cc12 [Cpd 79, 2-(3,5-difluorophenyl)-6-(piperazin-1-yl)-4H-chromen-4-one]
maximal fold induction [1]: 1.35 to 1.5 | EC (1.5-fold) [1]: 3 to 10 µM | EC (1.5-fold) [2]: ≤ 0.1 µM | melting point: 180 to 190 °C

CCOc1ccc(-c2cc(=O)c3cc(N4CCNCC4)ccc3o2)cc1 [Cpd 41, 2-(4-ethoxyphenyl)-6-(piperazin-1-yl)-4H-chromen-4-one]
maximal fold induction [1]: ≤ 1.2 | EC (1.5-fold) [2]: 0.3 to 1 µM | melting point: 180 to 182 °C

CN1CCCN(c2ccc3oc(-c4cccnc4)cc(=O)c3c2)CC1 [Cpd 5, 6-(4-methyl-1,4-diazepan-1-yl)-2-(pyridin-3-yl)-4H-chromen-4-one]
maximal fold induction [1]: 1.2 to 1.35 | EC (1.5-fold) [2]: 3 to 30 µM | melting point: 136 to 138 °C

COc1ccc(-c2cc(=O)c3cc(N4CCN[C@@H](C)C4)ccc3o2)cc1OC [Cpd 31, 2-(3,4-dimethoxyphenyl)-6-[(3S)-3-methylpiperazin-1-yl]-4H-chromen-4-one]
maximal fold induction [1]: > 1.65 | EC (1.5-fold) [1]: ≤ 0.3 µM | EC (1.5-fold) [2]: ≤ 0.1 µM | melting point: 172 to 174 °C

O=c1cc(-c2cccc(F)c2)oc2ccc(N3CCNCC3)cc12 [Cpd 66, 2-(3-fluorophenyl)-6-(piperazin-1-yl)-4H-chromen-4-one]
maximal fold induction [1]: 1.35 to 1.5 | EC (1.5-fold) [2]: 0.1 to 0.3 µM | melting point: 150 to 152 °C

C[C@@H]1CN(c2ccc3oc(-c4cccnc4)cc(=O)c3c2)C[C@H](C)N1 [Cpd 9, 6-[(3R,5S)-3,5-dimethylpiperazin-1-yl]-2-(pyridin-3-yl)-4H-chromen-4-one]
maximal fold induction [1]: 1.5 to 1.65 | EC (1.5-fold) [1]: 3 to 10 µM | EC (1.5-fold) [2]: 1 to 3 µM | melting point: 148 to 150 °C

CC(C)N1CCN(c2ccc3oc(-c4cccnc4)cc(=O)c3c2)CC1 [Cpd 4, 6-[4-(propan-2-yl)piperazin-1-yl]-2-(pyridin-3-yl)-4H-chromen-4-one]
maximal fold induction [1]: ≤ 1.2 | EC (1.5-fold) [2]: 3 to 30 µM | melting point: 148 to 150 °C

C[C@H]1CN(c2ccc3oc(-c4cc(F)cc(F)c4)cc(=O)c3c2)CCN1 [Cpd 80, 2-(3,5-difluorophenyl)-6-[(3S)-3-methylpiperazin-1-yl]-4H-chromen-4-one]
maximal fold induction [1]: 1.5 to 1.65 | EC (1.5-fold) [1]: 0.3 to 1 µM | EC (1.5-fold) [2]: ≤ 0.1 µM | melting point: 175 to 178 °C
